Patent US20230142126A1, “METHODS AND COMPOSITIONS FOR THE TREATMENT OF VIRAL DISEASES” (priority 2020, published 2023)

Experiments:
[1] = tested on: SARS-CoV-2 (strain: BEI_USA-WA1/2020); test: microbe, parasite or virus in culture; format: cell-based; settings: Calu-3, 4 h pretreatment, MOI 0.01, 48 h post-infection (FIG. 2, FIG. 3)
SARS-CoV-2 = test: microbe, parasite or virus in culture; format: cell-based; settings: for EC50: estimated from 1 and 10 µM

| Structure (SMILES) | antiviral activity (percentage of virus infected cells vs concentration) [1] | % Inhibition (SARS-CoV-2; 1 µM (Table 7)) [%] | % Inhibition (SARS-CoV-2; 10 µM (Table 7)) [%] | EC50 (SARS-CoV-2; Calu-3, plaque assay) [nM] | inhibition at 1 µM (SARS-CoV-2; Severe acute respiratory syndrome coronavirus 2, Calu-3, 1 µM (Table 7), read-out: % Inhibition) [%] | inhibition at 10 µM (SARS-CoV-2; Severe acute respiratory syndrome coronavirus 2, Calu-3, 10 µM (Table 7), read-out: % Inhibition) [%] | EC90 (SARS-CoV-2; Severe acute respiratory syndrome coronavirus 2, Calu-3, plaque assay, estimated) [nM] | EC50 (SARS-CoV-2; Severe acute respiratory syndrome coronavirus 2, Calu-3, plaque assay) [nM] |
| --- | --- | --- | --- | --- | --- | --- | --- | --- |
| C[C@@H]1CS/C(=N\NC(=O)C(=O)[C@@H](NC(=O)C2CCCCCC2)C2CCOCC2)N1C [ONO-5334] | demonstrated antiviral activity | 79 | 100 | < 1000 | – | – | – | – |
| CC(C)(F)C[C@H](N[C@@H](c1ccc(-c2ccc(S(C)(=O)=O)cc2)cc1)C(F)(F)F)C(=O)NC1(C#N)CC1 [Odanacatib] | – | – | – | – | 48.4 | 97.1 | 1000 to 10000 | ~1000 |
